Assay: Inhibition of MKK7 beta1 S273D/T275D double mutant (unknown origin) using JNK1 K55M mutant as substrate by ADP-Glo assay
Set-up: species or system Homo sapiens

SMILES	IC50
C=CC(=O)N1CCC[C@@H](n2nc(-c3cccc(C(F)(F)F)c3)c3c(N)ncnc32)C1	159 nM
C=CC(=O)N1CCC[C@@H](n2nc(-c3cccc4ccccc34)c3c(N)ncnc32)C1	149 nM
C=CC(=O)N1CCC[C@@H](n2nc(-c3ccc(C(F)(F)F)cc3)c3c(N)ncnc32)C1	666 nM
C=CC(=O)N1CCC[C@@H](n2nc(C#CC3CCCC3)c3c(N)ncnc32)C1	1570 nM
CCC(=O)N1CCC[C@@H](n2nc(-c3cccc(C(F)(F)F)c3)c3c(N)ncnc32)C1	> 10000 nM
C=CC(=O)N1CCC[C@@H](n2ncc3c(N)ncnc32)C1	631 nM
C=CC(=O)N1CCC[C@@H](n2nc(-c3ccc4ccccc4c3)c3c(N)ncnc32)C1	113 nM
CCC(=O)N1CCC[C@@H](n2nc(-c3ccc(F)cc3)c3c(N)ncnc32)C1	> 10000 nM
CN(C)C/C=C/C(=O)N1CCC[C@@H](n2nc(-c3cccc(C(F)(F)F)c3)c3c(N)ncnc32)C1	2610 nM
N#C/C(=C\C1CC1)C(=O)N1CCC[C@@H](n2nc(-c3cnc4[nH]ccc4c3)c3c(N)ncnc32)C1	> 10000 nM
N#C/C(=C\C1CC1)C(=O)N1CCC[C@@H](n2nc(-c3cccc(C(F)(F)F)c3)c3c(N)ncnc32)C1	> 10000 nM
CCC(=O)N1CCC[C@@H](n2nc(-c3ccccc3)c3c(N)ncnc32)C1	> 10000 nM
C=CC(=O)N1CCC[C@@H](n2nc(-c3cn(C)c4ccccc34)c3c(N)ncnc32)C1	302 nM
C=CC(=O)N1CCC[C@@H](n2nc(-c3ccc(F)cc3)c3c(N)ncnc32)C1	154 nM
C=CC(=O)N1CCC[C@@H](n2nc(-c3ccccc3)c3c(N)ncnc32)C1	413 nM
C=CC(=O)N1CCC[C@@H](n2nc(-c3ccc(O)cc3)c3c(N)ncnc32)C1	8.6 nM
C=CC(=O)N1CCC[C@@H](n2nc(-c3ccc(Oc4ccccc4)cc3)c3c(N)ncnc32)C1 [IBRUTINIB]	78 nM
C=CC(=O)N1CCC[C@@H](n2nc(C3CC3)c3c(N)ncnc32)C1	307 nM
C=CC(=O)N1CCC[C@@H](n2nc(-c3cnc4[nH]ccc4c3)c3c(N)ncnc32)C1	19 nM

— ChEMBL document CHEMBL4334443, “Characterization of Covalent Pyrazolopyrimidine-MKK7 Complexes and a Report on a Unique DFG-in/Leu-in Conformation of Mitogen-Activated Protein Kinase Kinase 7 (MKK7)” (J Med Chem, 2019)
